From paper PMC10111022, “Comparison of pharmacological inhibitors of lysine-specific demethylase 1 in glioblastoma stem cells reveals inhibitor-specific efficacy profiles” (Frontiers in Neurology, 2023)

Tests used:
MDA-GSC 262 = experiment: Cell viability dose response (IC50), MDA-GSC 262; type: cell-based; conditions: Homo sapiens, mean of three independent experiments
Description: (§1) MDA-GSCs were plated at 50,000 cells/well into 12-well plates at and allowed to grow for 5 days until neurospheres were formed. The cells were then treated with either TCP, GSK-LSD1, or RN-1 at various concentrations for 5 days. Next, the cells were collected and neurospheres were dissociated with Accutase (BioLegend; San Diego, CA). Cell viability was determined using a trypan dye exclusion assay and read with the Vi-Cell XR Cell Viability Analyzer (Beckman Coulter; Brea, CA). NHAs were plated at 50,000 cells/well into 12-well plates and allowed to adhere overnight. The following day, NHAs were treated with the LSD1 inhibitors. After 5 days, the cells were detached using TrypLE and assessed with the trypan blue dye exclusion assay.
(§2) The alamarBlue cell viability (Bio-Rad; Hercules, CA) was performed on the MDA-GSCs according to the manufacturer’s protocol. The cells were plated at 5,000 cell/well into a 96-well plate and allowed to grow for 5 days. After 5 days, the alamarBlue reagent was added and fluorescence was measured with the Synergy 2 (BioTek Instruments; Winooski, VT) plate reader according to the manufacturer’s protocol.

MDA-GSC 311 = experiment: Cell viability dose response (IC50), MDA-GSC 311; type: cell-based; conditions: Homo sapiens, mean of three independent experiments
Description: as §1, §2

MDA-GSC 20 = experiment: Cell viability dose response (IC50), MDA-GSC 20; type: cell-based; conditions: Homo sapiens, mean of three independent experiments
Description: as §1, §2

MDA-GSC 17 = experiment: Cell viability dose response (IC50), MDA-GSC 17; type: cell-based; conditions: Homo sapiens, mean of three independent experiments
Description: as §1, §2

MDA-GSC 6–27 = experiment: Cell viability dose response (IC50), MDA-GSC 6–27; type: cell-based; conditions: Homo sapiens, mean of three independent experiments
Description: as §1, §2

MDA-GSC 7–11 = experiment: Cell viability dose response (IC50), MDA-GSC 7–11; type: cell-based; conditions: Homo sapiens, mean of three independent experiments
Description: as §1, §2

MDA-GSC 23 = experiment: Cell viability dose response (IC50), MDA-GSC 23; type: cell-based; conditions: Homo sapiens, mean of three independent experiments
Description: as §1, §2

MDA-GSC 8–11 = experiment: Cell viability dose response (IC50), MDA-GSC 8–11; type: cell-based; conditions: Homo sapiens, mean of three independent experiments
Description: as §1, §2

MDA-GSC 7–2 = experiment: Cell viability dose response (IC50), MDA-GSC 7–2; type: cell-based; conditions: Homo sapiens, mean of three independent experiments
Description: as §1, §2

NHA = experiment: Cell viability dose response (IC50), normal human astrocytes; type: cell-based; conditions: for IC50: Homo sapiens, Astrocyte, mean of three independent experiments; for effect on NHA viability: NHA treated at the maximum concentration tested for each compound
Description: as §1, §2

MDA-GSC lines = experiment: Cell viability across the panel of nine MDA-GSC lines; type: cell-based, Human; conditions: for concentrations at which MDA-GSC viability was reduced: many/several MDA-GSC lines, dose response curves Figure 2
Description: as §1, §2

[1] = set-up: method as in PMID 34786883, PMID 33052756; conditions: safety studies; cited from earlier work
[2] = set-up: method as in personal communications, Salarius Pharmaceuticals; conditions: ref personal communications, Salarius Pharmaceuticals; cited from earlier work
MDA-GSC20 = experiment: qPCR of resistance-related genes, MDA-GSC20; type: cell-based, Human; conditions: MDA-GSC20 (resistant)
Description: (§3) Total RNA was extracted using RNeasy Plus Mini Kit (Qiagen; Hilden, Germany) following the manufacturer’s protocol. cDNA was synthesized with the iScript cDNA synthesis kit (Bio-Rad; Hercules, CA), qPCR was performed using Forget-Me-Not EvaGreen qPCR kit (Biotium; Fremont, CA), and samples were analyzed with the LightCycler96 (Roche; Basel, Switzerland). Cq values were normalized to PPIA and reported as relative fold change from untreated control.

MDA-GSC7-2 = experiment: qPCR of resistance-related genes, MDA-GSC7-2; type: cell-based, Human; conditions: MDA-GSC7-2 (sensitive)
Description: as §3

MDA-GSC8-11 = experiment: qPCR of resistance-related genes, MDA-GSC8-11; type: cell-based, Human; conditions: MDA-GSC8-11 (resistant)
Description: as §3

MDA-GSC17 = experiment: qPCR of resistance-related genes, MDA-GSC17; type: cell-based, Human; conditions: MDA-GSC17 (sensitive)
Description: as §3

Row | SMILES | IC50 (MDA-GSC 262) [µM] | IC50 (MDA-GSC 311) [µM] | IC50 (MDA-GSC 20) [µM] | IC50 (MDA-GSC 17) [µM] | IC50 (MDA-GSC 6–27) [µM] | IC50 (MDA-GSC 7–11) [µM] | IC50 (MDA-GSC 23) [µM] | IC50 (MDA-GSC 8–11) [µM] | IC50 (MDA-GSC 7–2) [µM] | IC50 (NHA; NHA) [µM] | concentrations at which MDA-GSC viability was reduced (MDA-GSC lines) | neurotoxic effects in human trials [1] | effect on NHA viability (NHA) | other results
1 | N[C@H]1CC[C@H](N[C@@H]2C[C@H]2c2ccccc2)CC1 [ORY-1001] | 92.7 | > 150 | 54.8 | 107 | 72.8 | 64.7 | 97.8 | 64.5 | 87.7 | 96.3 | 50 to 90 µM | have not revealed any neurotoxic effects | – | –
2 | C/C(=N\NC(=O)c1cccc(S(=O)(=O)N2CCN(C)CC2)c1)c1cc(Cl)ccc1O [SP-2577] | 8.8 | 23.6 | > 25 | 15.7 | 6.8 | 5.6 | 16.8 | 12.4 | 9.7 | 2.3 | less than 10 μM | – | – | activity in noncancerous cells, NHA (NHA; NHA, Figure 2J): strong activity; crossing of the blood brain barrier [2]: has not been found to cross the blood brain barrier
3 | CN1CCN(C(=O)CN[C@H]2C[C@@H]2c2ccc(OCc3ccccc3)cc2)CC1 [RN-1] | > 50 | > 50 | 39.8 | 22.5 | 23.8 | > 50 | > 50 | > 50 | > 50 | > 50 | 20 to 50 µM | – | minimal effect | –
4 | Nc1nnc(CN[C@@H]2C[C@H]2c2ccc(OCc3ccccc3)cc2)o1 [ORY-2001] | > 50 | 45.6 | > 50 | > 50 | > 50 | 42.1 | 48.1 | > 50 | > 50 | > 50 | – | – | – | IC50 (MDA-GSC lines; Homo sapiens, majority of MDA-GSCs, maximum dose 50 μM): > 50 µM
5 | CN1CCN(C(=O)[C@H](CCCN[C@@H]2C[C@H]2c2ccc(F)cc2)NC(=O)c2ccc(-n3ccnn3)cc2)CC1 [IMG-7289] | 41.2 | > 125 | 66.9 | 87.4 | 39.9 | 23.6 | 34.2 | 56.1 | 32.1 | 38.2 | < 50 µM | have not revealed any neurotoxic effects | – | –
6 | NC1CC1c1ccccc1 (stereo not shown) [TCP, tranylcypromine] | 4100 | 3500 | 4700 | 2200 | > 5000 | > 5000 | 2700 | > 5000 | 2700 | > 5000 | – | – | minimal effect | effects on cell viability (MDA-GSC lines; MDA-GSC lines, Figure 2C): not seen until mM concentrations; expression of resistance-related genes (FTH1, RAB39B, HKDC1, FAM213A) (MDA-GSC20): consistently increased; expression of resistance-related genes (FTH1, RAB39B, HKDC1, FAM213A) (MDA-GSC7-2): only minimal effects; expression of resistance-related genes (MDA-GSC8-11): increase in two of the resistance related genes; expression of resistance-related genes (MDA-GSC17): did not significantly increase
